“Also recorded” adds a separate entry of the source.
Columns and labels:
NTPDase2 [1] = target: T1, NTPDase2 (Homo sapiens, UniProt Q9Y5L3); assay: Fluorescence spectra of the nucleotide with and without NTPDase2; assay type: biochemical; parameters: made in house; host or cells: COS-7 cells (transfected; lysate used as enzyme); conditions: 200 μM nucleotide, excitation at 290 nm
T1 sequence (Q9Y5L3 1-495): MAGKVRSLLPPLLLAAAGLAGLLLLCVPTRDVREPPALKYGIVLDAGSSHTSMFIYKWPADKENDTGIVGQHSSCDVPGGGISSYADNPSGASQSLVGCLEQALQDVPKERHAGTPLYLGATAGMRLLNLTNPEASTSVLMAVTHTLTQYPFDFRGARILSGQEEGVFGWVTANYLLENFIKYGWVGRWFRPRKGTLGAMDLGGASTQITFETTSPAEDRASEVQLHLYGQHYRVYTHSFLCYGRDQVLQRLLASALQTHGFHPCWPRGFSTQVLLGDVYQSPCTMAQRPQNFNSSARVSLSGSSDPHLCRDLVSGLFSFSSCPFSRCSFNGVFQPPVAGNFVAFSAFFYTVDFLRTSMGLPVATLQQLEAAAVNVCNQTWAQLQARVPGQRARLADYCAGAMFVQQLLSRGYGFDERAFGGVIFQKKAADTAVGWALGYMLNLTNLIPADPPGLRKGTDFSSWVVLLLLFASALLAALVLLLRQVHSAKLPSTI
Text: Next, we tested whether N^2,N3-ε-A is suitable for probing ectonucleotidases. […] For this purpose, we measured the fluorescence spectra of 30a and its monophosphate homologue with and without human NTPDase2. We observed that the fluorescence intensity of the nucleotide decreased by ca. ⅓ upon the addition of the enzyme (not shown). This observation is consistent with the lower dielectric constant (polarity) of the protein as compared to that of the aqueous solution. Fluorescence intensity of the bound nucleotide, although lowered, still enables the application of this nucleotide as a fluorescent probe.
For the fluorescence studies of 30a-NTPDase2 complex, emission spectra of 30a and its monophosphate homologue, 30a′, were measured in the presence of human NTPDase2 using an Aminco-Bowman series 2 Luminescence Spectrometer. Measurement conditions included: 740-780 V sensitivity, 37° C. and excitation at 290 nm. The concentration of the samples was of the order of 2×10^−4 M in the NTPDase incubation mixture. Measurements of the emission spectra were performed in 1.5 ml of 200 μM 30a and 30a′, without enzyme. Enzyme was added (3.6 μg of transfected COS-7 cells lysate), then, emission spectra were measured at 5 min intervals. […]

rat brain P2Y1-receptor = target: T2, rat brain P2Y1-receptor (Rattus norvegicus, UniProt P49651); assay: Agonist-induced Ca2+ release in HEK 293 cells stably transfected with P2Y1-receptor; assay type: cell-based; conditions: HEK 293 cells with rat brain P2Y1-receptor
T2 construct: expressed in transfected cells
Text: To examine the efficacy of analogues 30a,d in a functional assay, we tested them by the agonist-induced Ca^2+ release in HEK 293 cells stably transfected with rat brain P2Y1-receptor (FIG. 6) (Voehringer et al., 2000). […] However, a benzyl substitution at N^6 of 30a, as in analogue 30d, reduced the ligand's potency. […] EC50 value in the range of 10^−6 M.

NTPDase2 [2] = target: T1, NTPDase2; assay: Hydrolysis as substrates of NTPDase2; assay type: biochemical; conditions: substrate at 200 μM
Experimental: (§1) For evaluation of the probes as substrates/inhibitors of NTPDase1 and 2, the analogues 30a-f were evaluated as either substrates or inhibitors of NTPDase1 and 2. We tested ATP and analogues 30 as substrates of NTPDases 1 and 2 at 100 μM for NTPDase1 and 200 μM for NTPDase2. All analogues were hydrolysed by NTPDases 1 and 2. NTPDase2 hydrolysed analogues 30 better than NTPDase1. When compared to ATP, the rate of hydrolysis of all analogues was lower for NTPDase1 and mostly similar for NTPDase2 (FIGS. 7A-7B).

NTPDase1 = target: T3, NTPDase1 (Homo sapiens, UniProt P49961); assay: Hydrolysis as substrates of NTPDase1; assay type: biochemical; conditions: substrate at 100 μM
T3 sequence (P49961 1-510): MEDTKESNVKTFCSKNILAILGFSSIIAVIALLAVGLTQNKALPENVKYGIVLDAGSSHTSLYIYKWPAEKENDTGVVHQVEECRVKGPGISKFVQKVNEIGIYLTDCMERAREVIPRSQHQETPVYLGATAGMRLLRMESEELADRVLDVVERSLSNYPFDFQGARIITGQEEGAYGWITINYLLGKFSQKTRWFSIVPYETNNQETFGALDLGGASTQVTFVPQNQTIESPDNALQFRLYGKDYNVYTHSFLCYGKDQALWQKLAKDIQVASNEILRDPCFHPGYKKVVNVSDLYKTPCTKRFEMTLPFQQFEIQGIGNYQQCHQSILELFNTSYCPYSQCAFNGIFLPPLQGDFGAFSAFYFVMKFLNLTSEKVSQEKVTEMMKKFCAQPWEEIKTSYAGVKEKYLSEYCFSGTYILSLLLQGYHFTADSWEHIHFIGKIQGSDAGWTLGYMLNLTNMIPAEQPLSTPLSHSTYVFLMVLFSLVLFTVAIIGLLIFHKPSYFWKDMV
Experimental: as §1

T2 sequence (P49651 whole entry): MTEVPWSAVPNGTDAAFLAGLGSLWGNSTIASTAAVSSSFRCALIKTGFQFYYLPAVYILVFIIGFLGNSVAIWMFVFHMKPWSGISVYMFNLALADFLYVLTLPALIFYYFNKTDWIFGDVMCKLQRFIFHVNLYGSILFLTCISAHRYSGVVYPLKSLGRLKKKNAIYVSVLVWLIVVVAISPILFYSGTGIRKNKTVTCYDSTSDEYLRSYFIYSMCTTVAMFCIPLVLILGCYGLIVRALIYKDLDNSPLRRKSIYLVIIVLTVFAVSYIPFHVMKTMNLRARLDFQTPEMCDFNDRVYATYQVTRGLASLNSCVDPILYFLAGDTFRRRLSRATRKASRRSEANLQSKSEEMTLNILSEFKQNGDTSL

Nc1nc2nccn2c2c1ncn2C1OC(COP(=O)(O)OP(=O)(O)OP(=O)(O)O)C(O)C1O (stereo not shown) [Compound 30a, N^2,N3-ethenoadenosine-5′-triphosphate]
Decrease of fluorescence intensity upon the addition of the enzyme (NTPDase2 [1]; human NTPDase2 (3.6 μg COS-7 lysate), 37° C.): ca. ⅓; also recorded: lower fluorescence intensity | Shift of maximum emission upon the addition of the enzyme (NTPDase2 [1]; human NTPDase2, 37° C.): does not shift | EC50 (rat brain P2Y1-receptor; Ca^2+ release): ~100 nM | Potency at P2Y1-R compared to ATP / 30a (rat brain P2Y1-receptor): almost equipotent with ATP; also recorded: almost equipotent to ATP | Rate of hydrolysis by NTPDase2 compared to ATP (NTPDase2 [2]): almost equipotent to ATP

O=P(O)(O)OP(=O)(O)OP(=O)(O)OCC1OC(n2cnc3c(N(Cc4ccccc4)Cc4ccccc4)nc4nccn4c32)C(O)C1O (stereo not shown) [Compound 30e, N^6,N^6-Dibenzyl-N^2,N3-ethenoadenosine-5′-triphosphate]
Rate of hydrolysis by NTPDase1 compared to ATP (NTPDase1): less efficiently than ATP | Rate of hydrolysis by NTPDase2 compared to ATP (NTPDase2 [2]): less efficiently than ATP; also recorded: significant reduction of the affinities
